In series [1] the test system is MCF7. Kind of series: clonogenic assay (LD50), ritonavir sensitivity. It is filed as cell-based, human. The text has this: (§1) MCF7 and MDA-MB-435 (435) had relatively low m-calpain levels, whereas MDA-MB-231 (231), MDA-MB-436 (436) and Caco 2 had relatively high m-calpain levels.
(§2) We note that the IC50 is derived from MTT assays, while the LD50 is derived from clonogenic assays.

The test system of series [2] is MDA-MB-231 (231). Kind of series: clonogenic assay (LD50), ritonavir sensitivity. It is filed as cell-based, human. The conditions noted are these: 231 cells.
Source text: as §1, §2

The subject of series [3] is MDA-MB-435 (435). In words: clonogenic assay (LD50), ritonavir sensitivity. It is filed as cell-based, human. As to conditions: 435 cells.
Source text: as §1, §2

Series [4] deals with MDA-MB-436 (436). Kind of series: clonogenic assay (LD50), ritonavir sensitivity. In kind it is cell-based, human. The conditions noted are these: 436 cells.
Source text: as §1, §2

The subject of series [5] is 436 with expression of IκB α super-repressor of NF-κB. In words: clonogenic assay (LD50), ritonavir sensitivity. It is filed as cell-based, human. The conditions noted are these: 436 expressing IκB α super-repressor of NF-κB.
Source text: This finding is consistent with the implication of signaling pathways in the resistance of breast cancer cell lines to chemotherapy (Patel et al., Oncogene 19:4159-4169).
as §2

The test system of series [6] is A549. In words: MTT assay, NSCLC cell line. The conditions noted are these: Homo sapiens. In kind it is cell-based.
Series [7] concerns H23. Kind of series: MTT assay, NSCLC cell line. In kind it is cell-based. The conditions noted are these: Homo sapiens, NCI-H23. (Formazan colour is commonly taken as a measure of viable cells.)
Series [8] has as its system MDA-436LXSN (vector control line). Kind of series: MTT assay, breast cancer line. It is filed as cell-based. As to conditions: Homo sapiens, read-out: Ritonavir IC50.
For series [9], the system named is EGF receptor. Kind of series: EGF receptor expression in Caco 2 cells, Western blot. In kind it is cell-based. As to conditions: 20 μM, 24 hours, confluent Caco 2. As to the method: The medium was not changed. After 24 hours, the cells were harvested by Triton X-100 lysis, and Western blot analysis was performed on the supernatant, which contains solubilized EGF receptor.
(In general: Immunoblotting shows a protein as a band on a membrane.)

Series [10] concerns the target T1, m-calpain (Homo sapiens, UniProt P17655).
T1 construct: endogenous in cells; host or cells: Caco 2A
In words: ionomycin activated m-calpain activity in Caco 2A cells. It is filed as cell-based. As to conditions: 0, 5, 10, 20, and 120 μM, FIG. 3. As to the method: (The Caco 2a calls were treated and analyzed as in Example 4).

Series [11] deals with calpain cleavage of α-fodrin. In words: NFF score, IHC with PP1 antibody, ritonavir treated mice. As to conditions: 10 days. In kind it is in vivo. The source says:
Differentiation of the stratum spinosum of tongue epithelium was affected, with a reduction of nuclear involution as well as an increase in the keratinized layer (FIGS. 5A-5C). […] Previous observations of the proliferative rate of tongue compared to skin in mice indicate that tongue is a more proliferative epithelium (Hume, W. J. Cell Tissue Kinet. 19:195-203 (1986)).
The antiserum specific for the calpain-dependent α-fodrin cleavage, PP1, was used at 1:100 dilution. Competition with specific peptide blocked nuclear staining. The size bar is […]. […] Arrows indicate basal layer nuclei. The vertical bar indicates maximum thickness of the keratinized layer in each image.

Series [12] relates to breast cancer lines. In words: propidium iodide flow cytometry. It is filed as cell-based, human. The conditions noted are these: at the IC50 concentration of ritonavir. On the technique in general: In flow cytometry, cells or beads pass a laser one at a time.
For series [13] the following is noted: patients, Gatti et al., cited from earlier work.

Each structure is given as a SMILES string.

The values that follow come from patent US20070009593A1, “Methods of treating cancer” (Indianan University Advanced Research, priority 2002, published 2007).

T1 sequence (P17655 20-700 limits assumed): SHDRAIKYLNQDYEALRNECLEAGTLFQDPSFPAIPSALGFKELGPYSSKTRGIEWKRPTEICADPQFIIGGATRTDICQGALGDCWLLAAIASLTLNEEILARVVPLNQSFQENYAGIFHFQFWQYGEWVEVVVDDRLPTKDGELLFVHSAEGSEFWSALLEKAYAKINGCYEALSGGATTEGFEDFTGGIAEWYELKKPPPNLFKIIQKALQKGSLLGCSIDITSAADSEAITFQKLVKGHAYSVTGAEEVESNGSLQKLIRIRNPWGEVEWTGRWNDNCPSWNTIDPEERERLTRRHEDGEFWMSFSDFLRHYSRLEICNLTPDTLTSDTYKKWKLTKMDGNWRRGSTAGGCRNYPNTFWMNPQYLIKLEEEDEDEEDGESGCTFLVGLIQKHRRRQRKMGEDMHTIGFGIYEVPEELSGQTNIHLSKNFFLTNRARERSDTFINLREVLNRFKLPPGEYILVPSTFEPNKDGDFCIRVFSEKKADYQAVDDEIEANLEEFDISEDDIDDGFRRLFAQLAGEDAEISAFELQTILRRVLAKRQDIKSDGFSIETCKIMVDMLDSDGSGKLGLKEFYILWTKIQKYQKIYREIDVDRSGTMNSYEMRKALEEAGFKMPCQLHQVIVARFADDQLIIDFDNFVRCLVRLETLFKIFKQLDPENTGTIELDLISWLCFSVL
T1 sequence (P04632 whole entry partner): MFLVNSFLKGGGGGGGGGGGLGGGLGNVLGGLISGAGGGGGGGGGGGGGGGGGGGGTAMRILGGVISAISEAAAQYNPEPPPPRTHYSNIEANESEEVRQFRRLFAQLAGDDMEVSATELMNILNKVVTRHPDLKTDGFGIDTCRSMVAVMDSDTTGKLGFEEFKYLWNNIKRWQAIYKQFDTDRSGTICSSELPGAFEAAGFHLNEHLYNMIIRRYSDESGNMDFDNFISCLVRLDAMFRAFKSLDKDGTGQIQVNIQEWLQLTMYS

Consider `CC(C)c1nc(CN(C)C(=O)N[C@H](C(=O)N[C@@H](Cc2ccccc2)C[C@H](O)[C@H](Cc2ccccc2)NC(=O)OCc2cncs2)C(C)C)cs1` [Ritonavir, ritonavir], for which the LD50 in [1] is 25 µM; in [2] it was 60 μm; in series [3] it was 16 µM; in series [4], 55 µM; in series [5], 40 µM. In series [6] (A549, MTT assay, single agent), this molecule registered an 80% effect concentration (IC80) of 45 µM. The IC50 in series [6] (MTT assay) was found to be 35 µM; in [7], 44 µM; in series [8], 42 µM. The “EGF receptor down regulated” value in [9] stood at 20%. Also, the inomycin activated m-calpain result in series [10] is on record as “dose dependent decrease”. In addition, the NFF score came out at 34% in series [11] (tongue basal cell layer, 12 μM peak); 1% in series [11] (tongue basal cell layer, 67 μM peak); 27% in [11] (ventral skin basal cell layer, 12 μM peak); 17% in series [11] (ventral skin basal cell layer, 67 μM peak). For the same molecule, in series [12], the cell cycle result was “induces cell cycle arrest”. Further, in [13] (AIDS 13:2083-2089), the “peak plasma ritonavir concentrations” value is 18.6 to 46 µM. In addition, the trough concentrations in series [13] (AIDS 13:2083-2089) was 10.4 to 17.5 µM. Besides, the Cmax in [13] (read-out: upper boundary of ritonavir Cmax plasma concentrations) was around 45 µM.

What is called IC80 is the concentration needed for an effect of 80%. A lower IC80 goes with an effect from little substance. For orientation: IC50 means the concentration needed to halve the response being measured.
